Biological target: BCL2 (Homo sapiens, UniProt P10415)
Experiment: Biacore SPR solution inhibition assay of BCL-2 binding to peptide derivatized sensor surfaces
Conditions: SPR competition; 56 nM BCL2 pre-equilibrated with compound one hour; biotinylated BAK, BAD and NOXA peptide surfaces; 25° C.
Method in brief: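 Solution-competition SPR at 25 °C in HEPES pH 7.4 buffer with 1.25 mM DTT and 3% DMSO: compounds (6-point threefold series, 16 μM to 0.004 nM) pre-equilibrated 1 h with 56 nM BCL2, then injected over captured biotinylated BAK, BAD and NOXA peptide surfaces. Binding levels relative to BCL2-only controls gave % inhibition.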

Sequence of BCL2 (P10415 whole entry): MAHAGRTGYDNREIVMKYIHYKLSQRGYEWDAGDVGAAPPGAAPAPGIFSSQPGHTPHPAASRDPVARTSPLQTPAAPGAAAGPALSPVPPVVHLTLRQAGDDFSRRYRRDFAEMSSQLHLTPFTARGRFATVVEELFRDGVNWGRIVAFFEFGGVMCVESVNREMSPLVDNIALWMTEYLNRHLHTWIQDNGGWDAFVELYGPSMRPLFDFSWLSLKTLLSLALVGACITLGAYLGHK

Row | SMILES | IC50
1 | CN(C)CC[C@H](CSc1ccccc1)Nc1ccc(S(=O)(=O)Nc2ncnc3c2CCN(C2CCN(Cc4ccccc4-c4ccc(Cl)cc4)CC2)C3)cc1C#N [Example 54, (R)-N-(7-(1-((4′-chlorobiphenyl-2-yl)methyl)piperidin-4-yl)-5,6,7,8-tetrahydropyrido[3,4-d]pyrimidin-4-yl)-3-cyano-4-(4-(dimethylamino)-1-(phenylthio)butan-2-ylamino)benzenesulfonamide] | 173 nM
2 | O=[N+]([O-])c1cc(S(=O)(=O)Nc2ncnc3c2CCN(C2CCN(Cc4ccccc4-c4ccc(Cl)cc4)CC2)C3)ccc1N[C@H](CCN1CCOCC1)CSc1ccccc1 [Example 58] | 66 nM
3 | CCC[C@H](CSc1ccccc1)Nc1ccc(S(=O)(=O)Nc2ncnc3c2CCN(C2CCN(CC4=C(c5ccc(Cl)cc5)CC(C)(C)CC4)CC2)C3)cc1S(=O)(=O)C(F)(F)F [Example 59, N-(7-(1-((2-(4-chlorophenyl)-4,4-dimethylcyclohex-1-enyl)methyl)piperidin-4-yl)-5,6,7,8-tetrahydropyrido[3,4-d]pyrimidin-4-yl)-4-(1-(phenylthio)pentan-2-ylamino)-3-(trifluoromethylsulfonyl)benzenesulfonamide] | 579 nM
4 | CN(C)CC[C@H](CSc1ccccc1)Nc1ccc(S(=O)(=O)Nc2ncnc3c2CCN(C2CCC(=Cc4ccccc4-c4ccc(Cl)cc4)CC2)C3)cc1S(=O)(=O)C(F)(F)F (stereo partly drawn) [Example 62, N-(7-(4-((4′-chlorobiphenyl-2-yl)methylene)cyclohexyl)-5,6,7,8-tetrahydropyrido[3,4-d]pyrimidin-4-yl)-4-((R)-4-(dimethylamino)-1-(phenylthio)butan-2-ylamino)-3-(trifluoromethylsulfonyl)benzenesulfonamide] | 174 nM
5 | CN(C)CC[C@H](CSc1ccccc1)Nc1ccc(S(=O)(=O)Nc2ncnc3c2CCN(C2CCC(=Cc4ccccc4)CC2)C3)cc1S(=O)(=O)C(F)(F)F (some centres unmarked) [Example 63] | 1180 nM
6 | O=S(=O)(Nc1nc(C(F)(F)F)nc2c1CCN(C1CCN(Cc3ccccc3-c3ccc(Cl)cc3)CC1)C2)c1ccc(N[C@H](CCN2CCOCC2)CSc2ccccc2)c(S(=O)(=O)C(F)(F)F)c1 [Example 68, (R)-N-(7-(1-((4′-chlorobiphenyl-2-yl)methyl)piperidin-4-yl)-2-(trifluoromethyl)-5,6,7,8-tetrahydropyrido[3,4-d]pyrimidin-4-yl)-4-(4-morpholino-1-(phenylthio)butan-2-ylamino)-3-(trifluoromethylsulfonyl)benzenesulfonamide] | 235 nM
7 | CN(C)CC[C@H](CSc1ccccc1)Nc1ccc(S(=O)(=O)Nc2nc(C(F)(F)F)nc3c2CCN(C2CCN(CC4=C(c5ccc(Cl)cc5)CCC(C)(C)C4)CC2)C3)cc1S(=O)(=O)C(F)(F)F [Example 70] | 51 nM
8 | CN(C)CC[C@H](CSc1ccccc1)Nc1ccc(S(=O)(=O)Nc2nc(C(F)(F)F)nc3c2CCN(C2CCN(Cc4ccccc4-c4ccc(Cl)cc4)CC2)C3)cc1[N+](=O)[O-] [Example 71, (R)-N-(7-(1-((4′-chlorobiphenyl-2-yl)methyl)piperidin-4-yl)-2-(trifluoromethyl)-5,6,7,8-tetrahydropyrido[3,4-d]pyrimidin-4-yl)-4-(4-(dimethylamino)-1-(phenylthio)butan-2-ylamino)-3-nitrobenzenesulfonamide] | 20 nM
9 | [2H]C1(N2CCc3c(nc(N(C)C)nc3NS(=O)(=O)c3ccc(N[C@H](CCN4CCN(C)CC4)CSc4ccccc4F)c(S(=O)(=O)C(F)(F)F)c3)C2)CCN(CC2=C(c3ccc(Cl)cc3)CC(C)(C)CC2)CC1 [Example 75, (R)-N-(7-(1-((2-(4-chlorophenyl)-4,4-dimethylcyclohex-1-enyl)methyl)-4-deuteropiperidin-4-yl)-2-(dimethylamino)-5,6,7,8-tetrahydropyrido[3,4-d]pyrimidin-4-yl)-4-(1-(2-fluorophenylthio)-4-(4-methylpiperazin-1-yl)butan-2-ylamino)-3-(trifluoromethylsulfonyl)benzenesulfonamide] | 66 nM

More lines, in order of falling IC50, values ahead:

Row | IC50 | SMILES
10 | 971 nM | O=S(=O)(Nc1ncnc2c1CN(C1CCN(Cc3ccccc3-c3ccc(Cl)cc3)CC1)C2)c1ccc(N[C@H](CCN2CCOCC2)CSc2ccccc2)c(S(=O)(=O)C(F)(F)F)c1 [Example 72, (R)-N-(6-(1-((4′-chlorobiphenyl-2-yl)methyl)piperidin-4-yl)-6,7-dihydro-5H-pyrrolo[3,4-d]pyrimidin-4-yl)-4-(4-morpholino-1-(phenylthio)butan-2-ylamino)-3-(trifluoromethylsulfonyl)benzenesulfonamide]
11 | 306 nM | COC1(Cc2ccccc2Br)CCC(N2CCc3c(ncnc3NS(=O)(=O)c3ccc(N[C@H](CCN(C)C)CSc4ccccc4)c(S(=O)(=O)C(F)(F)F)c3)C2)CC1 (stereo partly drawn) [Example 61, (R)-N-(7-(4-(2-bromobenzyl)-4-methoxycyclohexyl)-5,6,7,8-tetrahydropyrido[3,4-d]pyrimidin-4-yl)-4-(4-(dimethylamino)-1-(phenylthio)butan-2-ylamino)-3-(trifluoromethylsulfonyl)benzenesulfonamide]
12 | 181 nM | O=S(=O)(Nc1ncnc2c1CCN(C1CCN(Cc3ccccc3-c3ccc(Cl)cc3)CC1F)C2)c1ccc(N[C@H](CCN2CCOCC2)CSc2ccccc2)c(S(=O)(=O)C(F)(F)F)c1 (stereo partly drawn) [Example 65, N-(7-(1((4′-Chlorobiphenyl-2-yl)methyl)-3-fluoropiperidin-4-yl)-5,6,7,8-tetrahydropyrido[3,4-d]pyrimidin-4-yl)-4-((R)-4-morpholino-1-(phenylthio)butan-2-ylamino)-3-(trifluoromethylsulfonyl)benzenesulfonamide]
13 | 99 nM | CN(C)CC[C@H](CSc1cccc(Cl)c1)Nc1ccc(S(=O)(=O)Nc2ncnc3c2CCN(C2CCN(Cc4ccccc4-c4ccc(F)cc4)CC2)C3)cc1S(=O)(=O)C(F)(F)F [Example 57, N-{7-[1-(4′-Fluoro-biphenyl-2-ylmethyl)-piperidin-4-yl]-5,6,7,8-tetrahydro-pyrido[3,4-d]pyrimidin-4-yl}-4-[(R)-1-(3-chloro-phenylsulfanylmethyl)-3-dimethylamino-propylamino]-3-trifluoromethanesulfonyl-benzenesulfonamide]
14 | 47 nM | CN(C)CC[C@H](CSc1ccccc1)Nc1ccc(S(=O)(=O)Nc2nc(C(F)(F)F)nc3c2CCN(C2CCN(Cc4ccccc4-c4ccc(Cl)cc4)CC2F)C3)cc1S(=O)(=O)C(F)(F)F (stereo partly drawn) [Example 69, N-(7-(1-((4′-chlorobiphenyl-2-yl)methyl)-3-fluoropiperidin-4-yl)-2-(trifluoromethyl)-5,6,7,8-tetrahydropyrido[3,4-d]pyrimidin-4-yl)-4-((R)-4-(dimethylamino)-1-(phenylthio)butan-2-ylamino)-3-(trifluoromethylsulfonyl)benzenesulfonamide]
15 | 42 nM | CN(C)CC[C@H](CSc1ccccc1)Nc1ccc(S(=O)(=O)Nc2nc(C(F)(F)F)nc3c2CCN(C2CCN(Cc4ccccc4-c4ccc(Cl)cc4)CC2)C3)cc1S(=O)(=O)C(F)(F)F [Example 67, (R)-N-(7-(1((4′-chlorobiphenyl-2-yl)methyl)piperidin-4-yl)-2-(trifluoromethyl)-5,6,7,8-tetrahydropyrido[3,4-d]pyrimidin-4-yl)-4-(4-(dimethylamino)-1-(phenylthio)butan-2-ylamino)-3-(trifluoramethylsulfonyl)benzenesulfonamide]
16 | 41 nM | [2H]C1(N2CCc3c(nc(C(F)(F)F)nc3NS(=O)(=O)c3ccc(N[C@H](CCN4CCN(C)CC4)CSc4ccccc4F)c(S(=O)(=O)C(F)(F)F)c3)C2)CCN([C@@H](C)c2ccccc2-c2ccc(Cl)cc2)CC1 [Example 74]
17 | 36 nM | CN(C)CC[C@H](CSc1ccccc1)Nc1ccc(S(=O)(=O)Nc2ncnc3c2CCN(C2CCN(Cc4ccccc4-c4ccc(Cl)cc4)CC2F)C3)cc1S(=O)(=O)C(F)(F)F (stereo partly drawn) [Example 66, N-(7-(1-((4′-chlorobiphenyl-2-yl)methyl)-3-fluoropiperidin-4-yl)-5,6,7,8tetrahydropyrido[3,4-d]pyrimidin-4-yl)-4-((R)-4-(dimethylamino)-1-(phenylthio)butan-2-ylamino)-3-(trifluoromethylsulfonyl)benzenesulfonamide]
18 | 35 nM | CN1CCN(CC[C@H](CSc2ccccc2F)Nc2ccc(S(=O)(=O)Nc3ncnc4c3CCN(C3CCN(CC5=C(c6ccc(Cl)cc6)CC(C)(C)CC5)CC3)C4)cc2S(=O)(=O)C(F)(F)F)CC1 [Example 55, (R)-N-(7-(1-((2-(4-chlorophenyl)-4,4-dimethylcyclohex-1-enyl)methyl)piperidin-4-yl)-5,6,7,8-tetrahydropyrido[3,4-d]pyrimidin-4-yl)-4-(1-(2-fluorophenylthio)-4-(4-methylpiperazin-1-yl)butan-2-ylamino)-3-(trifluoromethylsulfonyl)benzenesulfonamide]
19 | 27 nM | CN1CCN(CC[C@H](CSc2ccccc2F)Nc2ccc(S(=O)(=O)Nc3ncnc4c3CCN(C3CCN(Cc5ccccc5-c5ccc(Cl)cc5)CC3)C4)cc2S(=O)(=O)C(F)(F)F)CC1 [Example 56, (R)-N-(7-(1-((4′-chlorobiphenyl-2-yl)methyl)piperidin-4-yl)-5,6,7,8-tetrahydropyrido[3,4-d]pyrimidin-4-yl)-4-(1-(2-fluorophenylthio)-4-(4-methylpiperazin-1-yl)butan-2-ylamino)-3-(trifluoromethylsulfonyl)benzenesulfonamide]
20 | 26 nM | [2H]C1(N2CCc3c(ncnc3NS(=O)(=O)c3ccc(N[C@H](CCN(C)C)CSc4ccccc4)c(S(=O)(=O)C(F)(F)F)c3)C2)CCN(Cc2cc(F)ccc2-c2ccc(Cl)cc2)CC1 [Example 73, (R)-N-(7-(1-((4′-chloro-4-fluorobiphenyl-2-yl)methyl)-4-deuteropiperidin-4-yl)-5,6,7,8-tetrahydropyrido[3,4-d]pyrimidin-4-yl)-4-(4-(dimethylamino)-1-(phenylthio)butan-2-ylamino)-3-(trifluoromethylsulfonyl)benzene sulfonamide]

Reference: US8809352B2, “Sulfonamides as inhibitors of Bcl-2 family proteins for the treatments of cancer” (Novartis AG, priority 2009, dated 2014)
